This note sets out measurements from ChEMBL document CHEMBL1287786, “Synthesis, antimicrobial and antioxidant evaluation of quinolines and bis(indolyl)methanes” (2010).

Common to all, as to type: functional
Experiment [1] relates to Radical scavenging activity. The experiment can be described thus: Antioxidant activity assessed as DPPH radical scavenging activity at 1000 ug by spectrophotometry relative to control.
Experiment [2] is described as follows: Antioxidant activity assessed as hydrogen peroxide radical scavenging activity after 40 mins by spectrophotometry relative to control. More on the design: concentration or dose not given beside the values.
In experiment [3] the test system is Radical scavenging activity. The experiment can be described thus: Antioxidant activity assessed as DPPH radical scavenging activity at 50 ug by spectrophotometry relative to control. (The DPPH test is a chemical assay of radical scavenging.)
A short description of experiment [4]: Antioxidant activity assessed as hydrogen peroxide radical scavenging activity after 30 mins by spectrophotometry relative to control. Further details: concentration or dose not given beside the values.
For experiment [5], the system named is Staphylococcus aureus. The experiment can be described thus: Antibacterial activity against Staphylococcus aureus ATCC 25923 at 1000 ug/ml after 24 hrs by cup plate method. The following applies: ATCC 25923, 24 h, read-out: IZ.
Experiment [6] is described as follows: Antioxidant activity assessed as hydrogen peroxide radical scavenging activity by spectrophotometry relative to control. More on the design: concentration or dose not given beside the values.
In experiment [7] the test system is Candida albicans. The experiment can be described thus: Antifungal activity against Candida albicans ATCC 10231 at 1000 ug/ml after 24 hrs by cup plate method. As to conditions: ATCC 10231, 24 h, read-out: IZ.
A short description of experiment [8]: Antioxidant activity assessed as hydrogen peroxide radical scavenging activity after 20 mins by spectrophotometry relative to control. Further details: concentration or dose not given beside the values.
Experiment [9] has as its system Escherichia coli. The experiment can be described thus: Antibacterial activity against Escherichia coli ATCC 25922 at 1000 ug/ml after 24 hrs by cup plate method. As to conditions: ATCC 25922, 24 h, read-out: IZ.
Experiment [10] in a line: Antioxidant activity assessed as hydrogen peroxide radical scavenging activity after 10 mins by spectrophotometry relative to control. More on the design: concentration or dose not given beside the values.
Experiment [11] deals with Radical scavenging activity. The experiment can be described thus: Antioxidant activity assessed as DPPH radical scavenging activity at 500 ug by spectrophotometry relative to control.

In the case of `O=C(O)c1ccc(C(c2c(-c3ccccc3)[nH]c3ccccc23)c2c(-c3ccccc3)[nH]c3ccccc23)cc1`, the Activity in [1] stood at 80%; in experiment [2] it was 24%; in experiment [3] it was 17%; in experiment [4], 35%; in experiment [6] it was 60%; in experiment [8], 45%. The figures for the Activity in experiment [10] and in experiment [11] were 45% and 48%, respectively. For the same molecule, the zone of inhibition at 1000 µg/mL is 24 mm in [5], 16 mm in [7] and 19 mm in [9].
